Starred links: 1 amine or outer side, 2 acyl side, 3 side chain; linkers in the order of their positions; H or OH if unused. Positions of bridges follow the written chain, without caps; N, C: chain ends. Residues, ends and D or L forms follow the SMILES beside them. *: point of attachment. C20 diacid = O=C(O)CCCCCCCCCCCCCCCCCCC(=O)*; C18 diacid = O=C(O)CCCCCCCCCCCCCCCCC(=O)*; γGlu = O=C(O)[C@H](CCC(=O)[*:2])N[*:1]
Test: Assay (III) ThT fibrillation assay for physical stability
Format: physicochemical
Settings: for ThT pH 4.0 lag time: pH 4.0, ThT fibrillation assay
Method in brief: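 Freshly prepared, pH-adjusted formulations with 1 μM ThT incubated at 37 °C under 960 rpm orbital shaking (1 mm), fluorescence (ex 444, em 485 nm) read every 20 min. […] Peptide content before and after measured by reverse-phase HPLC against pramlintide standard.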

Compound	ThT pH 4.0 lag time (physical stability in fibrillogenesis assay) (pH 4.0)	ThT pH 4.0 lag time
CC[C@H](C)[C@H](NC(=O)[C@@H]1CCCN1C(=O)CNC(=O)[C@H](Cc1ccccc1)NC(=O)[C@H](CO)NC(=O)[C@H](CO)NC(=O)[C@H](CO)NC(=O)[C@H](CO)NC(=O)[C@H](CCCNC(=N)N)NC(=O)[C@@H](NC(=O)[C@H](CC(C)C)NC(=O)[C@H](Cc1ccccc1)NC(=O)[C@H](CCC(=O)O)NC(=O)[C@H](C)NC(=O)[C@H](CC(C)C)NC(=O)[C@H](CCCNC(=N)N)NC(=O)[C@H](CCC(N)=O)NC(=O)[C@@H](NC(=O)[C@H](C)NC(=O)[C@@H]1CSSC[C@H](NC(=O)[C@H](CCCCN)NC(=O)CC[C@H](NC(=O)CCCCCCCCCCCCCCCCCCC(=O)O)C(=O)O)C(=O)N[C@@H](CC(N)=O)C(=O)N[C@@H]([C@@H](C)O)C(=O)N[C@@H](C)C(=O)N[C@@H]([C@@H](C)O)C(=O)N1)[C@@H](C)O)C(C)C)C(=O)N[C@@H](CC(C)C)C(=O)N[C@@H](CO)C(=O)N[C@@H](CO)C(=O)N[C@H](C(=O)N[C@@H](CC(=O)O)C(=O)N[C@H](C(=O)NCC(=O)N[C@@H](CO)C(=O)N[C@@H](CC(=O)O)C(=O)N[C@H](C(=O)N1CCC[C@H]1C(N)=O)[C@@H](C)O)C(C)C)[C@@H](C)O [Example 170, N-alpha-[(S)-4-Carboxy-4-(19-carboxynonadecanoylamino)butyryl]-[Glu14,Arg18,Ser21,Ser22,Ser28,Ser29,Asp31,Asp35,Pro37]-pramlintide] ({C20 diacid-γGlu}-KCNTATCATQRLAEFLVRSSSSFGPILSSTDVGSDTP-NH2; disulfide 2-7)	>45 h	>45 h
CC[C@H](C)[C@H](NC(=O)[C@@H]1CCCN1C(=O)CNC(=O)[C@H](Cc1ccccc1)NC(=O)[C@H](CC(N)=O)NC(=O)[C@H](CC(N)=O)NC(=O)[C@H](CO)NC(=O)[C@H](CO)NC(=O)[C@H](Cc1c[nH]cn1)NC(=O)[C@H](CCCNC(=N)N)NC(=O)[C@H](CC(C)C)NC(=O)[C@H](Cc1ccccc1)NC(=O)[C@H](CCC(=O)O)NC(=O)[C@H](C)NC(=O)[C@H](CC(C)C)NC(=O)[C@H](CCCNC(=N)N)NC(=O)[C@H](CCC(N)=O)NC(=O)[C@@H](NC(=O)[C@H](C)NC(=O)[C@@H]1CSSC[C@H](NC(=O)[C@H](CCCCN)NC(=O)CC[C@H](NC(=O)CCCCCCCCCCCCCCCCC(=O)O)C(=O)O)C(=O)N[C@@H](CC(N)=O)C(=O)N[C@@H]([C@@H](C)O)C(=O)N[C@@H](C)C(=O)N[C@@H]([C@@H](C)O)C(=O)N1)[C@@H](C)O)C(=O)N[C@@H](CC(C)C)C(=O)N1CCC[C@H]1C(=O)N1CCC[C@H]1C(=O)N[C@H](C(=O)N[C@@H](CC(N)=O)C(=O)N[C@H](C(=O)NCC(=O)N[C@@H](CO)C(=O)N[C@@H](Cc1c[nH]cn1)C(=O)N[C@H](C(=O)N[C@@H](Cc1ccc(O)cc1)C(N)=O)[C@@H](C)O)C(C)C)[C@@H](C)O [Example 61, N-alpha-[(S)-4-Carboxy-4-(17-carboxyheptadecanoylamino)butyryl]-[Glu14,Arg17,His35]-pramlintide] ({C18 diacid-γGlu}-KCNTATCATQRLAEFLRHSSNNFGPILPPTNVGSHTY-NH2; disulfide 2-7)		>45 h
CC[C@H](C)[C@H](NC(=O)[C@@H]1CCCN1C(=O)CNC(=O)[C@H](Cc1ccccc1)NC(=O)[C@H](CC(N)=O)NC(=O)[C@H](CC(N)=O)NC(=O)[C@H](CO)NC(=O)[C@H](CO)NC(=O)[C@H](Cc1c[nH]cn1)NC(=O)[C@H](Cc1c[nH]cn1)NC(=O)[C@H](CC(C)C)NC(=O)[C@H](Cc1ccccc1)NC(=O)[C@H](CCC(=O)O)NC(=O)[C@H](C)NC(=O)[C@H](CC(C)C)NC(=O)[C@H](CCCNC(=N)N)NC(=O)[C@H](CCC(N)=O)NC(=O)[C@@H](NC(=O)[C@H](C)NC(=O)[C@@H]1CSSC[C@H](NC(=O)[C@H](CCCCN)NC(=O)CC[C@H](NC(=O)CCCCCCCCCCCCCCCCCCC(=O)O)C(=O)O)C(=O)N[C@@H](CC(N)=O)C(=O)N[C@@H]([C@@H](C)O)C(=O)N[C@@H](C)C(=O)N[C@@H]([C@@H](C)O)C(=O)N1)[C@@H](C)O)C(=O)N[C@@H](CC(C)C)C(=O)N1CCC[C@H]1C(=O)N1CCC[C@H]1C(=O)N[C@H](C(=O)N[C@@H](CC(N)=O)C(=O)N[C@H](C(=O)NCC(=O)N[C@@H](CO)C(=O)N[C@@H](CC(N)=O)C(=O)N[C@@H](Cc1c[nH]cn1)C(=O)N[C@@H](Cc1ccc(O)cc1)C(N)=O)C(C)C)[C@@H](C)O [Example 114, N-alpha-[(S)-4-Carboxy-4-(19-carboxynonadecanoylamino)butyryl]-[Glu14,His17,His36]-pramlintide] ({C20 diacid-γGlu}-KCNTATCATQRLAEFLHHSSNNFGPILPPTNVGSNHY-NH2; disulfide 2-7 (inferred))		>45 h
CC[C@H](C)[C@H](NC(=O)[C@@H]1CCCN1C(=O)CNC(=O)[C@H](Cc1ccccc1)NC(=O)[C@H](CC(N)=O)NC(=O)[C@H](CC(N)=O)NC(=O)[C@H](CO)NC(=O)[C@H](CO)NC(=O)[C@H](Cc1c[nH]cn1)NC(=O)[C@H](CCCNC(=N)N)NC(=O)[C@H](CC(C)C)NC(=O)[C@H](Cc1ccccc1)NC(=O)[C@H](CCC(=O)O)NC(=O)[C@H](C)NC(=O)[C@H](CC(C)C)NC(=O)[C@H](CCCNC(=N)N)NC(=O)[C@H](CCC(N)=O)NC(=O)[C@@H](NC(=O)[C@H](C)NC(=O)[C@@H]1CSSC[C@H](NC(=O)[C@H](CCCCN)NC(=O)[C@H](CCC(=O)O)NC(=O)CC[C@H](NC(=O)CCCCCCCCCCCCCCCCC(=O)O)C(=O)O)C(=O)N[C@@H](CC(N)=O)C(=O)N[C@@H]([C@@H](C)O)C(=O)N[C@@H](C)C(=O)N[C@@H]([C@@H](C)O)C(=O)N1)[C@@H](C)O)C(=O)N[C@@H](CC(C)C)C(=O)N1CCC[C@H]1C(=O)N1CCC[C@H]1C(=O)N[C@H](C(=O)N[C@@H](CC(N)=O)C(=O)N[C@H](C(=O)NCC(=O)N[C@@H](CO)C(=O)N[C@@H](Cc1c[nH]cn1)C(=O)N[C@H](C(=O)N[C@@H](Cc1ccc(O)cc1)C(N)=O)[C@@H](C)O)C(C)C)[C@@H](C)O [Example 62, N-alpha-[(S)-4-Carboxy-4-(17-carboxyheptadecanoylamino)butyryl]-Glu-[Glu14,Arg17,His35]-pramlintide] ({C18 diacid-γGlu}-EKCNTATCATQRLAEFLRHSSNNFGPILPPTNVGSHTY-NH2; disulfide 3-8 (inferred); C-terminus assumed)		30 h

From patent US8741836B2, “Polypeptides” (Novo Nordisk A/S, priority 2011, dated 2014)
